Laboratory results reported in patent publication US5786332A, “Cytokine restraining agents and methods of use in pathologies and conditions associated with altered cytokine levels” (Trega Biosciences, Inc., priority 1995, dated 1998).

Key:
IL-6 = test: Reduction of LPS-induced Interleukin-6 levels in mice (ELISA); format: in vivo; details: 300 μg/mouse; LPS-treated mice vs untreated control
Method: Balb/c mice were grouped and treated as described in Example III, above. Blood samples were obtained from the orbital sinus at various times up to six hr and serum was collected and diluted as described above. A 100 μl aliquot was assayed for IL-6 levels using an IL-6-specific ELISA by a modification of the method of Starnes et al., J. Immunol. 145:4185-4194 (1990), which is incorporated herein by reference.
The mean (+/-SEM) IL-6 level in six mice from each group was determined and the percent reduction in IL-6 was calculated.

TNF-α = test: Reduction of LPS-induced TNF levels in mice (IP dosing, ELISA); format: in vivo; details: 30 μg/mouse IP; LPS 5 mg/kg IP; vs untreated control mice
Method: Balb/c female mice weighing approximately 20 g were placed into two groups, a control group and a treated group. Five mg/kg of LPS in 0.9% saline was administered by intraperitoneal (IP) injection into the control mice. Mice in the treated group were first injected IP with 30 μg EX-2 or 150 μg EX-3 in saline, then, one mn after EX-2 or EX-3 was administered, the mice received LPS as described for the control group.
Blood samples were collected from the orbital sinus of treated and control mice at various times up to four hr after LPS was administered. The plasma was separated by centrifugation at 3000×g for 5 min, then diluted with four volumes of 1× phosphate buffer saline (pH 7.4) containing 1% bovine serum albumin. A 100 μl sample of serum was assayed by ELISA for TNF-α (Genzyme; Cambridge Mass.).
The mean (+/-SEM) TNF-α level in six mice from each group was determined and the percent reduction in TNF levels was calculated.

[1] = tested on: inducible nitric oxide synthase (INOS); test: Inducible nitric oxide synthase induction in rat aorta smooth muscle cells (cGMP RIA); format: cell-based; details: RASMC; 0.1 or 1 μM EX-2 before LPS, IL-1β or TNF-α (not specified which)
Method: A. Inducible Nitric Oxide Synthase (INOS): Rat aorta smooth muscle cells (RASMC) were isolated from male rats (325-350 g) using the previously published procedures of Gelsterfer et al., Circ. Res. 62:749-756 (1988), which is incorporated herein by reference. Cells were positively identified as smooth muscle cells by indirect immunofluorescent staining for anti-α-actin, using a mouse anti-α-actin antibody and anti-mouse IgG FITC conjugate. Cells were grown in T-75 tissue culture flasks (Corning Delbelco's Glass, Inc.; Corning, N.Y.) in 50% F12 and 50% Delbelco's Modified Eagle Medium (DMEM) supplemented with 10% bovine serum, 0.2 g/l L-glutamine, penicillin (100 U/ml) and streptomycin (0.1 mg/ml).
Cells between passages 1-5 were pretreated with one of the following: vehicle, LPS (1 μg/ml), IL-1β (10 U/ml), or TNF-α (100 U/ml) for 6 hr. […] Accumulation of cGMP was determined following exposure to 0.3 mM 3-isobutyl-1-methyl xanthine (IBMX) in the presence or absence of 1 mM L-arginine. […] The HCl extract was analyzed for cGMP by RIA and the NaOH-solubilized cell remnants were used for protein determination.
Male Sprague-Dawley rats were anesthetized with 55 mg/kg pentobarbital IP. […] RASMC were incubated with plasma from control or EX-2-treated animals and the ability of plasma components to inhibit the induction of INOS by LPS or IL-1β was determined as above. […]

Sprague-Dawley rats [2] = test: Streptozotocin-induced diabetes, plasma glucose; format: in vivo; details: STZ 65 mg/kg iv; EX-2 150 μg/kg every 8 hr for 72 hr
Method: B. Induced Diabetes: Male Sprague-Dawley rats were given 65 mg/kg of streptozotocin (STZ) intravenously through the tall vein. Rats were divided into two groups. The first group was administered EX-2, 150 μg/kg every 8 hr for 72 hr and the second group was a control. Blood samples were withdrawn under ether anesthesia every 8 hr for the first 72 hr, then every 12 hr or 24 hr until the end of the observation period. Plasma samples were assayed for glucose using a glucose assay kit (Trinder, Sigma Chemical Co.). As shown in Table VI below EX-2 effect a 72% reduction in blood glucose levels.

Sprague-Dawley rats [3] = test: Nephrotoxic serum glomerulonephritis, albuminuria; format: in vivo; details: EX-2 100 μg/kg per injection 3 times per day; 24 hr albumin excretion
Method: C. Glomerulonephritis: Male Sprague-Dawley rats (weight 194-248 g) were immunized by subcutaneous injection of 1 mg normal rabbit IgG (Sigma Chemical Co.) in Freund's complete adjuvant (Sigma Chemical Co.). EX-2 was administered 3 times per day (100 μg/kg per injection) throughout the duration of the experiment. Seven days later, the rats were injected with 1.5 ml of nephrotoxic serum iv via dorsal penile vein. Urine, plasma, and serum were collected before injection of nephrotoxic serum at 4, 6, 24, 48, and 96 hr thereafter. […] Albuminuria was quantified by immunoelectrophoresis.

For “Ac-Nle-Gln-His-(D)Phe-Arg-(D)Trp-Gly-NH2 [EX-2]”, the “Reduction in IL-6 levels” value (IL-6) was 60%, the “Reduction in TNF levels” value (TNF-α) was 50% and the “% Reduction of induced increase in cGMP (pmol/100 mg/5 min), INOS” value [1] was 60%. The “% Reduction of induced increase in Blood Glucose (mg/dl), STZ Diabetes” value (Sprague-Dawley rats [2]) was 72% and the “% Reduction of induced increase in Albumin (mg/day), Glomerulonephritis” value (Sprague-Dawley rats [3]) was 62%.
